Patent US10259808B2 (Genentech, Inc., priority 2015, dated 2019)
pIC50: −log10 of the molar value.

target: T1, RORc ligand binding domain (Homo sapiens, UniProt P51449); assay: In vitro RORc ligand binding assay (25-[3H]hydroxycholesterol displacement)
T1 sequence (P51449 269-508 limits assumed): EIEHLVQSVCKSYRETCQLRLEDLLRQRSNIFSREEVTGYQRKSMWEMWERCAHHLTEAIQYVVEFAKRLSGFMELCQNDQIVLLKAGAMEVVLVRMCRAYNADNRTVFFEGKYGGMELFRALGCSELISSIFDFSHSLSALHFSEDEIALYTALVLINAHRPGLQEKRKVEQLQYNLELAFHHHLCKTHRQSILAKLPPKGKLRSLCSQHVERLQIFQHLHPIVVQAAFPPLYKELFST

| pIC50 | SMILES |
| --- | --- |
| 7.49 | C[C@H]1CC[C@H](c2ccccc2)S(=O)(=O)N1Cc1cc(F)c(C2(NC(=O)C3CCOC3)COC2)cc1F (stereo in doubt) [Example 129, N-[3-[2,5-difluoro-4-[[(3S,6R)-3-methyl-1,1-dioxo-6-phenyl-thiazinan-2-yl]methyl]phenyl]oxetan-3-yl]tetrahydrofuran-3-carboxamide] |
| 6.90 | Cc1n[nH]cc1C(=O)NC1(c2cc(F)c(CN3[C@@H](C)CC[C@H](c4ccccc4)S3(=O)=O)cc2F)COC1 (stereo in doubt) [Example 130, N-[3-[2,5-difluoro-4-[[(3S,6R)-3-methyl-1,1-dioxo-6-phenyl-thiazinan-2-yl]methyl]phenyl]oxetan-3-yl]-3-methyl-1H-pyrazole-4-carboxamide] |
| 6.68 | C[C@H]1CC[C@H](c2ccccc2)S(=O)(=O)N1Cc1cc(F)c(C2(NC(=O)c3cnn(C)c3)COC2)cc1F (stereo in doubt) [Example 131, N-[3-[2,5-difluoro-4-[[(3S,6R)-3-methyl-1,1-dioxo-6-phenyl-thiazinan-2-yl]methyl]phenyl]oxetan-3-yl]-1-methyl-pyrazole-4-carboxamide] |
| 6.88 | C[C@H]1CC[C@H](c2ccccc2)S(=O)(=O)N1Cc1cc(F)c(C2(NC(=O)c3ncc[nH]3)COC2)cc1F (stereo in doubt) [Example 133, N-[3-[2,5-difluoro-4-[[(3S,6R)-3-methyl-1,1-dioxo-6-phenyl-thiazinan-2-yl]methyl]phenyl]oxetan-3-yl]-1H-imidazole-2-carboxamide] |
| 7.29 | C[C@H]1CC[C@H](c2ccccc2)S(=O)(=O)N1Cc1cc(F)c(C2(NC(=O)c3c[nH]cn3)COC2)cc1F (stereo in doubt) [Example 134, N-[3-[2,5-difluoro-4-[[(3S,6R)-3-methyl-1,1-dioxo-6-phenyl-thiazinan-2-yl]methyl]phenyl]oxetan-3-yl]-1H-imidazole-4-carboxamide] |
| 7.84 | C[C@H]1CC[C@H](c2ccccc2)S(=O)(=O)N1Cc1ccc(C2(c3nc(C4CC4)no3)CCOCC2)cc1F [Example 23] |
| 7.95 | C[C@H]1CC[C@H](c2ccccc2)S(=O)(=O)N1Cc1ccc(C2(CN3CCOCC3)CCOCC2)cc1F [Example 24] |
| 6.96 | CC(=O)OCc1nc(C2(c3ccc(CN4[C@@H](C)CC[C@H](c5ccccc5)S4(=O)=O)c(F)c3)CCOCC2)no1 [Example 27, [3-[4-[3-fluoro-4-[[(3S,6R)-3-methyl-1,1-dioxo-6-phenyl-thiazinan-2-yl]methyl]phenyl]tetrahydropyran-4-yl]-1,2,4-oxadiazol-5-yl]methyl acetate] |
| 6.33 | C[C@H]1CC[C@H](c2ccccc2)S(=O)(=O)N1Cc1ccc(C2(c3noc(CN(C)C)n3)CCOCC2)cc1F [Example 28, 1-[3-[4-[3-fluoro-4-[[(3S,6R)-3-methyl-1,1-dioxo-6-phenyl-thiazinan-2-yl]methyl]phenyl]tetrahydropyran-4-yl]-1,2,4-oxadiazol-5-yl]-N,N-dimethyl-methanamine] |
| 7.20 | C[C@H]1CC[C@H](c2ccccc2)S(=O)(=O)N1Cc1ccc(C2(c3noc(CO)n3)CCOCC2)cc1F [Example 29, [3-[4-[3-fluoro-4-[[(3S,6R)-3-methyl-1,1-dioxo-6-phenyl-thiazinan-2-yl]methyl]phenyl]tetrahydropyran-4-yl]-1,2,4-oxadiazol-5-yl]methanol] |
| 6.61 | C[C@H]1CC[C@H](c2ccccc2)S(=O)(=O)N1Cc1ccc(C2(c3noc(=O)[nH]3)CCOCC2)cc1F [Example 30, 3-[4-[3-fluoro-4-[[(3S,6R)-3-methyl-1,1-dioxo-6-phenyl-thiazinan-2-yl]methyl]phenyl]tetrahydropyran-4-yl]-4H-1,2,4-oxadiazol-5-one] |
| 7.10 | C[C@H]1CC[C@H](c2ccccc2)S(=O)(=O)N1Cc1cc(F)c(C2(C(=O)N3CC[C@@H](O)C3)CCOCC2)cc1F [Example 32, [4-[2,5-difluoro-4-[[(3S,6R)-3-methyl-1,1-dioxo-6-phenyl-thiazinan-2-yl]methyl]phenyl]tetrahydropyran-4-yl]-[(3R)-3-hydroxypyrrolidin-1-yl]methanone] |
| 7.63 | C[C@H]1CC[C@H](c2ccccc2)S(=O)(=O)N1Cc1cc(F)c(C2(C(=O)NCc3ccnn3C)CCOCC2)cc1F [Example 33, 4-[2,5-difluoro-4-[[(3S,6R)-3-methyl-1,1-dioxo-6-phenyl-thiazinan-2-yl]methyl]phenyl]-N-[(2-methylpyrazol-3-yl)methyl]tetrahydropyran-4-carboxamide] |
| 7.01 | C[C@H]1CC[C@H](c2ccccc2)S(=O)(=O)N1Cc1cc(F)c(C2(C(=O)N3CC[C@H](O)C3)CCOCC2)cc1F [Example 34, [4-[2,5-difluoro-4-[[(3S,6R)-3-methyl-1,1-dioxo-6-phenyl-thiazinan-2-yl]methyl]phenyl]tetrahydropyran-4-yl]-[(3S)-3-hydroxypyrrolidin-1-yl]methanone] |
| 8.00 | C[C@H]1CC[C@H](c2ccccc2)S(=O)(=O)N1Cc1cc(F)c(C2(C(=O)n3ccc(N)n3)CCOCC2)cc1F [Example 35, (3-aminopyrazol-1-yl)-[4-[2,5-difluoro-4-[[(3S,6R)-3-methyl-1,1-dioxo-6-phenyl-thiazinan-2-yl]methyl]phenyl]tetrahydropyran-4-yl]methanone] |
| 6.97 | C[C@H]1CC[C@H](c2ccccc2)S(=O)(=O)N1Cc1cc(F)c(C2(C(=O)N3CCOCC3)CCOCC2)cc1F [Example 37, [4-[2,5-difluoro-4-[[(3S,6R)-3-methyl-1,1-dioxo-6-phenyl-thiazinan-2-yl]methyl]phenyl]tetrahydropyran-4-yl]-morpholino-methanone] |
| 7.46 | Cc1ccn(C(=O)C2(c3cc(F)c(CN4[C@@H](C)CC[C@H](c5ccccc5)S4(=O)=O)cc3F)CCOCC2)n1 [Example 38, [4-[2,5-difluoro-4-[[(3S,6R)-3-methyl-1,1-dioxo-6-phenyl-thiazinan-2-yl]methyl]phenyl]tetrahydropyran-4-yl]-(3-methylpyrazol-1-yl)methanone] |

Second part, the molecule before the results:

| SMILES | pIC50 |
| --- | --- |
| Cc1cc(NC(=O)C2(c3ccc(CN4[C@@H](C)CC[C@H](c5ccccc5)S4(=O)=O)c(F)c3)CCOCC2)n(C)n1 (stereo in doubt) [Example 14, N-(2,5-dimethylpyrazol-3-yl)-4-[3-fluoro-4-[[(3S,6R)-3-methyl-1,1-dioxo-6-phenyl-thiazinan-2-yl]methyl]phenyl]tetrahydropyran-4-carboxamide] | 7.20 |
| C[C@H]1CC[C@H](c2ccccc2)S(=O)(=O)N1Cc1ccc(C2(C(=O)NC3COC3)CCOCC2)cc1F [Example 1] | 6.96 |
| Cc1nocc1CNC(=O)C1(c2ccc(CN3[C@@H](C)CC[C@H](c4ccccc4)S3(=O)=O)c(F)c2)CCOCC1 [Example 2] | 7.20 |
| C[C@H]1CC[C@H](c2ccccc2)S(=O)(=O)N1Cc1ccc(C2(C(=O)NCc3ccno3)CCOCC2)cc1F [Example 4] | 7.12 |
| C[C@H]1CC[C@H](c2ccccc2)S(=O)(=O)N1Cc1ccc(C2(C(=O)NCCN3CCC(O)CC3)CCOCC2)cc1F [Example 5] | 5.73 |
| C[C@H]1CC[C@H](c2ccccc2)S(=O)(=O)N1Cc1ccc(C2(C(=O)Nc3ncnn3C)CCOCC2)cc1F [Example 7] | 6.52 |
| C[C@H]1CC[C@H](c2ccccc2)S(=O)(=O)N1Cc1ccc(C2(C(=O)NC3CCOC3)CCOCC2)cc1F (stereo partly drawn) [Example 8, 4-[3-fluoro-4-[[(3S,6R)-3-methyl-1,1-dioxo-6-phenyl-thiazinan-2-yl]methyl]phenyl]-N-tetrahydrofuran-3-yl-tetrahydropyran-4-carboxamide] | 7.00 |
| C[C@H]1CC[C@H](c2ccccc2)S(=O)(=O)N1Cc1ccc(C2(C(=O)NC3(C)COC3)CCOCC2)cc1F [Example 9, 4-[3-fluoro-4-[[(3S,6R)-3-methyl-1,1-dioxo-6-phenyl-thiazinan-2-yl]methyl]phenyl]-N-(3-methyloxetan-3-yl)tetrahydropyran-4-carboxamide] | 6.84 |
| C[C@H]1CC[C@H](c2ccccc2)S(=O)(=O)N1Cc1ccc(C2(C(=O)NCc3cnccn3)CCOCC2)cc1F [Example 10] | 6.76 |
| C[C@H]1CC[C@H](c2ccccc2)S(=O)(=O)N1Cc1ccc(C2(C(=O)NCC3CCOC3)CCOCC2)cc1F (some centres unmarked) [Example 11] | 6.79 |
| CCn1nccc1NC(=O)C1(c2ccc(CN3[C@@H](C)CC[C@H](c4ccccc4)S3(=O)=O)c(F)c2)CCOCC1 [Example 13] | 7.20 |
| CNC(=O)c1nc(CNC(=O)C2(c3ccc(CN4[C@@H](C)CC[C@H](c5ccccc5)S4(=O)=O)c(F)c3)CCOCC2)no1 [Example 15, 3-[[[4-[3-fluoro-4-[[(3S,6R)-3-methyl-1,1-dioxo-6-phenyl-thiazinan-2-yl]methyl]phenyl]tetrahydropyran-4-carbonyl]amino]methyl]-N-methyl-1,2,4-oxadiazole-5-carboxamide] | 8.03 |
| C[C@H]1CC[C@H](c2ccccc2)S(=O)(=O)N1Cc1ccc(C2(C(=O)NCc3cn[nH]c3)CCOCC2)cc1F [Example 17, 4-[3-fluoro-4-[[(3S,6R)-3-methyl-1,1-dioxo-6-phenyl-thiazinan-2-yl]methyl]phenyl]-N-(1H-pyrazol-4-ylmethyl)tetrahydropyran-4-carboxamide] | 7.49 |
| Cc1cc(N)n(C(=O)C2(c3ccc(CN4[C@@H](C)CC[C@H](c5ccccc5)S4(=O)=O)c(F)c3)CCOCC2)n1 [Example 19] | 7.91 |
| Cc1cc(N)nn1C(=O)C1(c2ccc(CN3[C@@H](C)CC[C@H](c4ccccc4)S3(=O)=O)c(F)c2)CCOCC1 [Example 21, (3-amino-5-methyl-pyrazol-1-yl)-[4-[3-fluoro-4-[[(3S,6R)-3-methyl-1,1-dioxo-6-phenyl-thiazinan-2-yl]methyl]phenyl]tetrahydropyran-4-yl]methanone] | 8.72 |
